Legend:
[1] = target: T1, rabOBP3; test: competitive displacement of fluorescent probe 1-NPN; type: binding, Oryctolagus cuniculus
T1 construct: native mature protein (161 amino acids) purified from rabbit seminal fluid, delipidated with dichloromethane

[2] = target: T1, rabOBP3; test: fluorescent probe titration (direct fluorescence binding); parameters: species or system Oryctolagus cuniculus

Row | Structure (SMILES) | Kd [1] [µM] | Kd [2] [µM]
1 | CC(C)=CCC/C(C)=C/CO [geraniol] | 11.2 | 
2 | O=c1c(O)c(-c2ccc(O)c(O)c2)oc2cc(O)cc(O)c12 [quercetin] | 2.2 | 
3 | c1ccc(Nc2cccc3ccccc23)cc1 [N-phenyl-1-naphthylamine] |  | 3.8
4 | CCCCCC/C=C/C=O [2-nonenal] | 7.8 | 
